US7678918B2, “Intermediates for imidazonaphthyridines” (3M Innovative Properties Company, priority 1997, dated 2010)

Assays:
IFN = experiment: Cytokine Induction in Human Cells: interferon (IFN) secreted by PBMCs, A549/encephalomyocarditis bioassay; format: cell-based; conditions: 18 to 24 hours
Text: (§1) An in vitro human blood cell system was used to assess cytokine induction by compounds of the invention. Activity is based on the measurement of interferon and tumor necrosis factor (ℑ) (IFN and TNF, respectively) secreted into culture media as described by Testerman et. al. In “Cytokine Induction by the Immunomodulators Imiquimod and S-27609”, Journal of Leukocyte Biology, 58, 365-372 (September, 1995). Blood Cell Preparation for Culture
(§2) Whole blood is collected by venipuncture into EDTA vacutainer tubes from healthy human donors. Peripheral blood mononuclear cells (PBMCs) are separated from whole blood by Histopaque®-1077 (Sigma Chemicals, St. Louis, Mo.) density gradient centrifugation. The PBMCs are suspended at 1.5-2×10^6 cells/mL in RPMI 1640 medium containing 10% fetal bovine serum, 2 mM L-glutamine and 1% penicillin/streptomycin solution (RPMI complete). 1 mL portions of PBMC suspension are added to 24 well flat bottom sterile tissue culture plates.
(§3) The compounds are solubilized in dimethyl sulfoxide (DMSO). The DMSO concentration should not exceed a final concentration of 1% for addition to the culture wells. The compounds are generally tested in a concentration range of from 0.1 to 100 μM.
(§4) The solution of test compound is added to the wells containing 1 mL of PBMCs in media. The plates are covered with plastic lids, mixed gently and then incubated for 18 to 24 hours at 37° C. with a 5% carbon dioxide atmosphere.
(§5) Following incubation the plates are centrifuged for 5-10 minutes at 1000 rpm (˜200×g) at 4° C. The cell culture supernatant is removed with a sterile polypropylene pipet and transferred to a 2 mL sterile cryotube. Samples are maintained at −70° C. until analysis.
Interferon is determined by bioassay using A549 human lung carcinoma cells challenged with encephalomyocarditis. The details of the bioassay method have been described by G. L. Brennan and L. H. Kronenberg in “Automated Bioassay of Interferons in Micro-test Plates”, Biotechniques, June/July 78, 1983, incorporated herein by reference. Briefly stated the method is as follows: A549 cells are incubated with samples and standard interferon dilutions at 37° C. for 24 hours. The incubated cells are then infected with an inoculum of encephalomyocarditis virus. The infected cells are incubated for an additional 24 hours at 37° C. before quantifying for viral cytopathic effect. The viral cytopathic effect is quantified by staining followed by visual scoring of the plates. Results are expressed as alpha reference units/mL based on the value obtained for NIH Human Leukocyte IFN standard.

TNF = experiment: Cytokine Induction in Human Cells: tumor necrosis factor (TNF) secreted by PBMCs, ELISA; format: cell-based; conditions: 18 to 24 hours
Text: as §1, §2, §3, §4, §5
Tumor necrosis factor (ℑ) (TNF) concentration is determined using an ELISA kit available from Genzyme, Cambridge, Mass. The results are expressed as pg/mL.
Note: call rule not given here.

Row | SMILES | IFN induction (IFN; Dose Concentration 0.1 μM) | IFN induction (IFN; Dose Concentration 1.0 μM) | IFN induction (IFN; Dose Concentration 10.0 μM) | IFN induction (IFN; Dose Concentration 100.0 μM) | TNF induction (TNF; Dose Concentration 0.1 μM) | TNF induction (TNF; Dose Concentration 1.0 μM) | TNF induction (TNF; Dose Concentration 10.0 μM) | TNF induction (TNF; Dose Concentration 100.0 μM)
1 | CCCCc1nc2c(N)nc3cccnc3c2n1CCCCNC(=O)c1cc(C(F)(F)F)cc(C(F)(F)F)c1 [Example 161] | ± | + | + | + | − | − | + | +
2 | CCCCc1nc2c(N)nc3cccnc3c2n1CCCCNC(=O)c1cc(OC)c(OC)c(OC)c1 [Example 162] | + | + | + | + | − | + | + | +
3 | CCCCc1nc2c(N)nc3cccnc3c2n1CCCCNC(=O)c1c(F)c(F)c(F)c(F)c1F [Example 163] | + | + | + | + | − | + | + | −
4 | CCCCc1nc2c(N)nc3cccnc3c2n1CCCCNC(=O)c1ccc(F)cc1 [Example 166] | − | + | + | − | − | + | + | −
5 | CCCCc1nc2c(N)nc3cccnc3c2n1CCCCNC(=O)CC(C)(C)C [Example 172] | + | + | + | + | − | + | + | +
6 | CCCCc1nc2c(N)nc3cccnc3c2n1CCCCNC(=O)C1CC1 [Example 173] | + | + | + | + | − | + | + | +
7 | CCCCc1nc2c(N)nc3cccnc3c2n1CCCCNC(=O)C1CCCC1 [Example 174] | + | + | + | + | + | + | + | −
8 | CCCCc1nc2c(N)nc3cccnc3c2n1CCCCNC(=O)CCC1CCCC1 [Example 175] | − | + | + | − | − | + | + | −
9 | CCCCc1nc2c(N)nc3cccnc3c2n1CCCCNC(=O)c1ccc(C#N)cc1 [Example 176] | − | + | + | + | − | − | + | +
10 | CCCCc1nc2c(N)nc3cccnc3c2n1CCCCNC(=O)c1c(C)cc(C)cc1C [Example 180] | + | + | + | + | ± | + | + | +
11 | CCCCc1nc2c(N)nc3cccnc3c2n1CCCCNC(=O)CCCCC(=O)OC [Example 182] | − | + | + | + | − | + | + | −
12 | CCCCc1nc2c(N)nc3cccnc3c2n1CCCCNC(=O)c1cccnc1Cl [Example 183] | − | − | − | − | − and + | − and + | − and + | −
